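Assay format: 96-well plates, 48-hour exposure. GI50 marks 50% less growth. TGI: concentration producing complete growth inhibition.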
How the values were obtained:
Assay in all cases: NCI tumour cell line growth inhibition, 48 h
[1] = system: BT-549 breast
[2] = system: MDA-N
[3] = system: PC-3 prostate
[4] = system: DU-145 prostate
[5] = system: MDA-MB-435
[6] = system: HS 578T breast
[7] = system: T-47D breast
[8] = system: DLD-1 colon
[9] = system: SNB-78 CNS
[10] = system: M19-MEL melanoma
[11] = system: XF 498 CNS
[12] = system: KM20L2 colon
[13] = system: DMS 114 small cell lung
[14] = system: DMS 273 small cell lung

With `O=c1c2ccccc2[nH]n1Cc1ccccc1` the TGI [1] was > 100 µM, the TGI [2] was > 100 µM and the TGI [3] was > 100 µM. For the same compound, the TGI [4] was > 100 µM, the TGI [5] was > 100 µM and the TGI [6] was > 100 µM. For the same compound, the TGI [7] was > 100 µM.

For `NCCSc1cc(O)c2c(c1N)C(=O)c1ccccc1C2=O`, the TGI [8] was > 100 µM, the TGI [9] was > 100 µM and the TGI [10] was 73.6 µM. The TGI [11] was 49.5 µM and the TGI [12] was > 100 µM.

Compound `CC1(C)[C@@H]2CC[C@]1(C)[C@H](OC(=O)/C=C/c1ccccc1)C2` has a TGI [1] of 48 µM, a TGI [2] of 92.6 µM and a TGI [3] of 56.4 µM. The TGI [4] was 47.9 µM, the TGI [5] was 77.7 µM and the TGI [6] was 41.7 µM. For the same compound, the TGI [7] was 34.2 µM.

In the case of `COc1cccc(/C=N/NC(=O)CSCC(=O)N/N=C/c2cccc(OC)c2OC)c1OC`, the TGI [3] is reported as > 100 µM, the TGI [4] is reported as > 100 µM and the TGI [5] is reported as > 100 µM. The TGI [6] was > 100 µM and the TGI [7] was > 100 µM.

With `O=C1C=CC2OC(c3ccccc3)C(O)C2O1` (stereo not given) the TGI [13] was 14.7 µM, the TGI [8] was 13.9 µM and the TGI [9] was 46.3 µM. The TGI [14] was 18.2 µM, the TGI [10] was 30.8 µM and the TGI [11] was 10.1 µM. The TGI [12] was 23.8 µM.

With `COc1cc(OC)cc(-c2ccc(-c3ccc(C(=N)N)cn3)o2)c1` the GI50 [3] was 1.65 µM, the TGI [3] was 3.14 µM and the GI50 [4] was 1.76 µM. The TGI [4] was 3.25 µM, the GI50 [5] was 1.55 µM and the TGI [5] was 2.99 µM. For the same compound, the GI50 [6] was 1.66 µM and the TGI [6] was 3.58 µM.

With `COc1cc(C(=O)O[C@H](C(=O)NCCCNC(=O)[C@@H](OC(=O)c2cc(OC)cc3c(C)cccc23)[C@]2(C)CO2)[C@]2(C)CO2)c2cccc(C)c2c1` the GI50 [1] was 0.197 µM, the TGI [1] was 2.29 µM and the GI50 [3] was < 0.0367 µM. The TGI [3] was 0.477 µM, the GI50 [4] was < 0.01 µM and the TGI [4] was < 0.01 µM. For the same compound, the TGI [5] was 0.503 µM, the GI50 [6] was 0.206 µM and the GI50 [7] was 0.0595 µM. The TGI [7] was 0.839 µM.

With `COc1ccc2c3c(Nc4cccc(/C(C)=N\O)c4)[nH]c4ccccc4c-3c(N=O)c2c1` the GI50 [1] was 47 µM, the TGI [1] was > 100 µM and the GI50 [3] was 20.5 µM. For the same compound, the TGI [3] was 65.4 µM, the GI50 [4] was 16 µM and the TGI [4] was 75.1 µM. The GI50 [5] was 30.9 µM, the TGI [5] was > 100 µM and the GI50 [6] was 94.8 µM. For the same compound, the TGI [6] was > 100 µM, the GI50 [7] was 16.9 µM and the TGI [7] was > 100 µM.

`COc1cc(C2c3cc4c(cc3[C@@H](Nc3cccc(CO)c3)C3COC(=O)[C@H]23)OCO4)cc(OC)c1O` (stereo not given in full) gave a TGI [13] of 3.82 µM, a TGI [8] of 4.56 µM and a TGI [14] of 1.76 µM. It also gave a TGI [10] of 32.6 µM and a TGI [11] of 5.63 µM.

In the case of `C=CCN1/C(=C(\C#N)c2nc3ccccc3[nH]2)Sc2c1nc[nH]c2=O`, the TGI [13] is reported as > 100 µM, the TGI [8] is reported as > 100 µM and the TGI [9] is reported as > 100 µM. For the same compound, the TGI [14] was > 100 µM, the TGI [10] was > 100 µM and the TGI [11] was > 100 µM. The TGI [12] was > 100 µM.

For `Cc1[nH]c(=O)[nH]c(=O)c1/C=C/C(=O)O` (tested in a mixture with another compound), the TGI [13] was > 625 µM, the TGI [8] was > 625 µM and the TGI [9] was > 625 µM. The TGI [14] was > 625 µM, the TGI [10] was > 625 µM and the TGI [11] was > 625 µM. For the same compound, the TGI [12] was > 625 µM.

With `CC(CC(N)C(=O)O)C(=O)O` (stereo not given) the TGI [1] was > 100 µM, the TGI [2] was > 100 µM and the TGI [3] was > 100 µM. The TGI [4] was > 100 µM, the TGI [5] was > 100 µM and the TGI [6] was > 100 µM. The TGI [7] was > 100 µM.

`CCC(C)C(N)C(=O)NC(CC(N)=O)C(=O)NC(CC(C)C)C(=O)NC(CCCCN)C(=O)NC(C)C(=O)NC(CC(C)C)C(=O)NC(C)C(=O)NC(C)C(=O)NC(CC(C)C)C(=O)NC(C)C(=O)NC(CCCCN)C(=O)NC(CCCCN)C(=O)NC(C(=O)NC(CC(C)C)C(N)=O)C(C)CC` (stereo not given) gave a TGI [13] of 28.1 µM, a TGI [8] of 25 µM and a TGI [9] of 29.2 µM. For the same compound, the TGI [14] was 17 µM, the TGI [10] was 25.9 µM and the TGI [12] was > 58.6 µM.

In the case of `COc1nc2cccc(C(O)c3ccccc3)c2nc1-c1ccccc1` (stereo not given), the TGI [1] is reported as 46.3 µM, the TGI [2] is reported as 5.17 µM and the TGI [3] is reported as 65.5 µM. For the same compound, the TGI [4] was 26.9 µM, the TGI [5] was 4.79 µM and the TGI [6] was 5.62 µM. For the same compound, the TGI [7] was 61.6 µM.

`OCC1COc2cc(Cl)c(Cl)cc2O1` (stereo not given) was tested, and the TGI [2] was > 10 µM, the TGI [3] was > 10 µM and the TGI [4] was > 10 µM. The TGI [5] was > 10 µM, the TGI [6] was > 10 µM and the TGI [7] was > 10 µM.

For `COc1cc2c3cc1Oc1c(O)c(OC)cc4c1C(Cc1ccc(O)c(c1)Oc1ccc(cc1)CC3N(C)CC2)N(C)CC4` (stereo not given), the TGI [13] was 44.8 µM, the TGI [9] was 50.7 µM and the TGI [14] was 30.6 µM. It also gave a TGI [10] of 43.8 µM, a TGI [11] of 33.5 µM and a TGI [12] of 17.4 µM.

`N#CC(N=Nc1ccccc1C(=O)O)C(N)=O` (stereo not given) was tested, and the TGI [1] was > 100 µM, the TGI [2] was > 100 µM and the TGI [3] was > 100 µM. The TGI [4] was > 100 µM, the TGI [5] was > 100 µM and the TGI [7] was > 100 µM.

`Cc1cccc(Br)[n+]1[O-]` was tested, and the TGI [1] was > 100 µM, the TGI [3] was > 100 µM and the TGI [4] was > 100 µM. The TGI [5] was > 100 µM, the TGI [6] was > 100 µM and the TGI [7] was > 100 µM.

With `Cc1c[n+]2c3ccccc3c3ccccc3c2s1` the TGI [13] was 16.1 µM, the TGI [8] was > 44.5 µM and the TGI [9] was > 29.5 µM. For the same compound, the TGI [14] was 20.1 µM, the TGI [10] was 18.3 µM and the TGI [11] was 18 µM.

Source: PubChem BioAssay (NCI)
